{
  "source": "PubChem BioAssay AID1259409",
  "about": "(Chemical Carcinogenesis Research Information System (CCRIS), 2018)",
  "origin": "cited, not measured here",
  "tested_on": "rodent chemically induced tumor inhibition, incidence and multiplicity",
  "test": "CCRIS tumor inhibitor studies",
  "settings": "Species: RAT",
  "data": [
    {"smiles": "C[Se]C#N", "values": [
      {"measurement": "tumour outcome (control, treated, inhibition, significance)", "setting": "Carcinogen: 7,12-DIMETHYLBENZ[A]ANTHRACENE, 57-97-6, Dose [Inhibitor]: 0, 1 PPM (AS SELENIUM) IN DIET BEGINNING 2 WK PRIOR TO CARCINOGEN DOSE AND CONTINUING FOR DURATION OF STUDY (STUDY DURAT, Route [Inhibitor]: ORAL, Strain/Sex: SPRAGUE-DAWLEY/FEMALE, Target Tissue: Type of Lesion: MAMMARY GLAND: ADENOCARCINOMA, Dose [Carcinogen]: 10 MG ONCE AT 55 D OF AGE, Promoter: NONE USED", "result": "88%, 64%, 27%, not significant"},
      {"measurement": "tumour outcome (control, treated, inhibition, significance)", "setting": "Carcinogen: 7,12-DIMETHYLBENZ[A]ANTHRACENE, 57-97-6, Dose [Inhibitor]: 0, 2 PPM (AS SELENIUM) IN DIET BEGINNING 2 WK PRIOR TO CARCINOGEN DOSE AND CONTINUING FOR DURATION OF STUDY (STUDY DURAT, Route [Inhibitor]: ORAL, Strain/Sex: SPRAGUE-DAWLEY/FEMALE, Target Tissue: Type of Lesion: MAMMARY GLAND: ADENOCARCINOMA, Dose [Carcinogen]: 10 MG ONCE AT 55 D OF AGE, Promoter: NONE USED", "result": "88%, 52%, 41%, p<0.05"},
      {"measurement": "tumour outcome (control, treated, inhibition, significance)", "setting": "Carcinogen: 7,12-DIMETHYLBENZ[A]ANTHRACENE, 57-97-6, Dose [Inhibitor]: 0, 3 PPM (AS SELENIUM) IN DIET BEGINNING 2 WK PRIOR TO CARCINOGEN DOSE AND CONTINUING FOR DURATION OF STUDY (STUDY DURAT, Route [Inhibitor]: ORAL, Strain/Sex: SPRAGUE-DAWLEY/FEMALE, Target Tissue: Type of Lesion: MAMMARY GLAND: ADENOCARCINOMA, Dose [Carcinogen]: 10 MG ONCE AT 55 D OF AGE, Promoter: NONE USED", "result": "88%, 40%, 55%, p<0.05"},
      {"measurement": "tumour outcome (control, treated, inhibition, significance)", "setting": "Carcinogen: 7,12-DIMETHYLBENZ[A]ANTHRACENE, 57-97-6, Dose [Inhibitor]: 0.1, 2 PPM (SELENIUM) IN DIET FOR 3 WK BEGINNING 2 WK PRIOR TO CARCINOGEN DOSE (STUDY DURATION: 25 WK), Route [Inhibitor]: ORAL, Strain/Sex: SPRAGUE-DAWLEY/FEMALE, Target Tissue: Type of Lesion: MAMMARY GLAND: TUMOR, Dose [Carcinogen]: 10 MG ONCE, Promoter: NONE USED", "result": "25/30 (83%), 19/30 (63%), 24%, not significant"}
    ]},
    {"smiles": "Nc1ncn([C@@H]2O[C@H](CO)[C@@H](O)[C@H]2O)c(=O)n1", "values": [
      {"measurement": "tumour outcome (control, treated, inhibition, significance)", "setting": "Carcinogen: DIETHYLNITROSAMINE, 55-18-5, Dose [Inhibitor]: 0, 5 MG/KG INJECTED 4, 24, AND 48 HR AFTER EACH CARCINOGEN EXPOSURE (STUDY DURATION: 6 MO), Route [Inhibitor]: INTRAPERITONEAL, Strain/Sex: BD6/MALE, Target Tissue: Type of Lesion: ESOPHAGUS: TUMOR, Dose [Carcinogen]: 80 MG/KG 1/WK FOR 5 WK", "result": "4/29 (14%), 3/27 (11%), 21%, not calculated"},
      {"measurement": "tumour outcome (control, treated, inhibition, significance)", "setting": "Carcinogen: DIETHYLNITROSAMINE, 55-18-5, Dose [Inhibitor]: 0, 5 MG/KG INJECTED 4, 24, AND 48 HR AFTER EACH CARCINOGEN EXPOSURE (STUDY DURATION: 6 MO), Route [Inhibitor]: INTRAPERITONEAL, Strain/Sex: BD6/MALE, Target Tissue: Type of Lesion: LIVER: TUMOR, Dose [Carcinogen]: 80 MG/KG 1/WK FOR 5 WK", "result": "15/29 (52%), 25/27 (93%), -79%, not calculated"},
      {"measurement": "tumour outcome (control, treated, inhibition, significance)", "setting": "Carcinogen: DIETHYLNITROSAMINE, 55-18-5, Dose [Inhibitor]: 0, 10 MG/KG INJECTED 4, 24, AND 48 HR AFTER EACH CARCINOGEN EXPOSURE (STUDY DURATION: 6 MO), Route [Inhibitor]: INTRAPERITONEAL, Strain/Sex: BD6/MALE, Target Tissue: Type of Lesion: ESOPHAGUS: TUMOR, Dose [Carcinogen]: 80 MG/KG 1/WK FOR 5 WK", "result": "4/29 (14%), 0/7 (0%), 100%, not calculated"},
      {"measurement": "tumour outcome (control, treated, inhibition, significance)", "setting": "Carcinogen: DIETHYLNITROSAMINE, 55-18-5, Dose [Inhibitor]: 0, 10 MG/KG INJECTED 4, 24, AND 48 HR AFTER EACH CARCINOGEN EXPOSURE (STUDY DURATION: 6 MO), Route [Inhibitor]: INTRAPERITONEAL, Strain/Sex: BD6/MALE, Target Tissue: Type of Lesion: LIVER: TUMOR, Dose [Carcinogen]: 80 MG/KG 1/WK FOR 5 WK", "result": "15/29 (52%), 6/7 (86%), -65%, not calculated"}
    ]}
  ]
}
